Measured values published in BindingDB's records for patent US12180207 (Array Biopharma, 2024).

Key:
[1] = molecular target: T1, Fibroblast growth factor receptor 2 (Homo sapiens, UniProt P21802); assay: FGFR2 Enzyme Activity Assay
Protocol: (§1) FGFR2 kinase activity was measured by the Invitrogen LanthaScreen™ Assay technology which directly measures the amount of substrate phosphorylation by TR-FRET using a fluorescently-labeled peptide and Europium-labeled antibody. […] After a 20 minute incubation at 22° C., an equal volume of 2 nM LanthaScreen Eu-PY20 Antibody (Life Technologies Cat. No. PV5691) and 10 mM EDTA were added to quench the kinase reaction and start the detection reaction. After an additional 60 minute incubation at 22° C., the reaction was measured using a PerkinElmer EnVision multimode plate reader via TR-FRET dual wavelength detection, and the percent of control (POC) calculated using a ratiometric emission factor. 100 POC was determined using no test compounds and 0 POC was determined using no enzyme. The POC values were fit to a 4-parameter logistic curve as a function of the concentration of the compound, and the IC50 value is the point where the curve crosses 50 POC.

[2] = molecular target: T1, Fibroblast growth factor receptor 2; assay: Enzyme Assay
Protocol: (§2) he potency of compounds inhibiting human isoforms of FGFR kinase was determined using Life Technologies' Homogeneous Time Resolved Fluorescence (HTRF)-based binding assay technology. […] After a 60 minute incubation at 22° C., the extent of tracer displacement was determined using a PerkinElmer EnVision multimode plate reader via HTRF dual wavelength detection, and the percent of control (POC) was calculated using a ratiometric emission factor. One hundred POC was determined using no test compound, and 0 POC was determined in the presence of 1 μM of an appropriate control inhibitor.

[3] = molecular target: T2, Fibroblast growth factor receptor 3 (Homo sapiens, UniProt P22607); assay: Enzyme Assay
T2 sequence (P22607 whole entry): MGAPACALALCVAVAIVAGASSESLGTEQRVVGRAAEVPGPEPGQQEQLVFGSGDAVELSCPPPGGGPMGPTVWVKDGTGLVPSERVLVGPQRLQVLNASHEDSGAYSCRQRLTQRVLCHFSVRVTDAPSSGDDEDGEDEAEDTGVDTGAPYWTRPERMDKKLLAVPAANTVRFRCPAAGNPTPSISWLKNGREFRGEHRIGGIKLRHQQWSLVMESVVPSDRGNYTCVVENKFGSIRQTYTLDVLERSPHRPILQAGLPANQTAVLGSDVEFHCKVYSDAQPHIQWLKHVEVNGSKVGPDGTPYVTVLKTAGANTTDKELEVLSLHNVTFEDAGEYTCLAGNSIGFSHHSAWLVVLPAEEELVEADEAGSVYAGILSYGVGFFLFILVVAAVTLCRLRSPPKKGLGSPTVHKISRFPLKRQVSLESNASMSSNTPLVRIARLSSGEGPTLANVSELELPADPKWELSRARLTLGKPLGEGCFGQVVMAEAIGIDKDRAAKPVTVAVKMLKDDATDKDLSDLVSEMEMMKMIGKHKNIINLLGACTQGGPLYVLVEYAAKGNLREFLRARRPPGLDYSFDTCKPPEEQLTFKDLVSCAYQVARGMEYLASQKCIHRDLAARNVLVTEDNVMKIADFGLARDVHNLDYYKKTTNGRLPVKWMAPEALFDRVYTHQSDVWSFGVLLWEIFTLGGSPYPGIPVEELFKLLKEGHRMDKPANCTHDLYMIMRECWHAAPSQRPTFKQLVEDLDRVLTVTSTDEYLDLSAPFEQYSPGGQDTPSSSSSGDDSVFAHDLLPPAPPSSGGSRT
Protocol: as §2

[4] = molecular target: T3, Fibroblast growth factor receptor 1 (Homo sapiens, UniProt P11362); assay: Enzyme Assay
T3 sequence (P11362 whole entry): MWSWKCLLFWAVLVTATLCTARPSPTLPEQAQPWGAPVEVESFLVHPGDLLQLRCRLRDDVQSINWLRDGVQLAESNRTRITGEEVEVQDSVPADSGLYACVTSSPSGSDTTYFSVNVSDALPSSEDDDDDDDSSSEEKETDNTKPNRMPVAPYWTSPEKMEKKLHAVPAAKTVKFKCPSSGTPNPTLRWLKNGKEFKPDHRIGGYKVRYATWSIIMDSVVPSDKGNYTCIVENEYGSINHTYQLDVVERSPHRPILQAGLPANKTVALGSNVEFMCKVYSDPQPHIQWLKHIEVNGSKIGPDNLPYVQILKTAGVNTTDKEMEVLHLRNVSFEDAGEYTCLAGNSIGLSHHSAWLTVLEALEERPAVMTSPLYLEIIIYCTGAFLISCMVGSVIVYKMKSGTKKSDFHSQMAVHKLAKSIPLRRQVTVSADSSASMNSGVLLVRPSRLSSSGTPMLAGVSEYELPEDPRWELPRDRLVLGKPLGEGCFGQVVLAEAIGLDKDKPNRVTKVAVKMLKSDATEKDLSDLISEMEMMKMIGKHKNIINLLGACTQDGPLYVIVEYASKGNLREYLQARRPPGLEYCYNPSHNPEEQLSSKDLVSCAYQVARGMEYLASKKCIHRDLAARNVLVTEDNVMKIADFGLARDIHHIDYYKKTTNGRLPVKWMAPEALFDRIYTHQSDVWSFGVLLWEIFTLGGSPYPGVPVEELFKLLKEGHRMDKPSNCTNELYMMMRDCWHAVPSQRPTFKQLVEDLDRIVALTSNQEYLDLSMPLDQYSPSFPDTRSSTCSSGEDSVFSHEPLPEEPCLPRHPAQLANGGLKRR
Protocol: as §2

[5] = molecular target: T3, Fibroblast growth factor receptor 1; assay: FGFR1 Enzyme Activity Assay
Protocol: as §1, with “FGFR1 kinase” for “FGFR2 kinase”, “by Time-resolved fluorescence energy transfer (TR-FRET)” for “by TR-FRET”, “20 minutes” for “20 minute”, “EDTA was” for “EDTA were”

[6] = molecular target: T2, Fibroblast growth factor receptor 3; assay: FGFR3 Enzyme Activity Assay
Protocol: as §1, with “FGFR3 kinase” for “FGFR2 kinase”, “a 10” for “a 20”

T1 sequence (P21802 whole entry): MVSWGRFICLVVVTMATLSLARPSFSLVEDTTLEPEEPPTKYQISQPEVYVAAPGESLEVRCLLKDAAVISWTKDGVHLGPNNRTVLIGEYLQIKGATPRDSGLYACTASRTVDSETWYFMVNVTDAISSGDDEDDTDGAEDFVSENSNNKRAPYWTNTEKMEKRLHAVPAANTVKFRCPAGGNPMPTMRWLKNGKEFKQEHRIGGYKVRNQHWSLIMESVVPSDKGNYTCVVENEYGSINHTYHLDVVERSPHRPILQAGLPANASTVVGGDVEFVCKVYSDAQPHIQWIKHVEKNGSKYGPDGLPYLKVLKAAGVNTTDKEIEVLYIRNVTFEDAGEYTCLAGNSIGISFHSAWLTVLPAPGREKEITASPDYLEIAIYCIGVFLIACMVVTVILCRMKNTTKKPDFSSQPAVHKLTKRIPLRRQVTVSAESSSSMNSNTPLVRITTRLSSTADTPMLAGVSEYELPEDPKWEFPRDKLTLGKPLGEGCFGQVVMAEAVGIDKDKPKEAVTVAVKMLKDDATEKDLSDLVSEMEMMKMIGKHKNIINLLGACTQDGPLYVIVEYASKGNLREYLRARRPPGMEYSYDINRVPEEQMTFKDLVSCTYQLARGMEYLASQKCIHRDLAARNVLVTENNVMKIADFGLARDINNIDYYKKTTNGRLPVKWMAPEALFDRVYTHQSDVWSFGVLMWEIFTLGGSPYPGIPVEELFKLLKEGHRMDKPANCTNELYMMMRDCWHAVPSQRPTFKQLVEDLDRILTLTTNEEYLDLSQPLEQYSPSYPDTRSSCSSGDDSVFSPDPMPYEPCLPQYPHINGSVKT

IC50 [1] [nM] | IC50 [2] [nM] | IC50 [3] [nM] | IC50 [4] [nM] | IC50 [5] [nM] | IC50 [6] [nM] | Structure (SMILES)
3 | 16 | 5 | 36 | 20 | – | COc1cc(-c2cnn(C3CCN(C(=O)C4CN(C(=O)/C=C/CF)C4)CC3)c2)cn2ncc(C#N)c12 [US12180207, Example 142]
12 | – | 118 | 393 | 35 | 11 | C=CC(=O)N[C@H]1CC[C@H](C(=O)N2CC(n3cc(-c4cc(OC)c5c(C#N)cnn5c4)cn3)C2)C1 [US12180207, Example 77]
– | – | 13 | 113 | 43 | 5 | C=CC(=O)Nc1ccc(S(=O)(=O)N2CCC(n3cc(-c4cc(OC)c5c(C#N)cnn5c4)cn3)CC2)cc1 [US12180207, Example 49]
4 | – | 31 | 113 | 13 | 3 | C=CC(=O)N[C@@H]1CC[C@H](C(=O)N2CCC(n3cc(-c4cc(OC)c5c(C#N)cnn5c4)cn3)CC2)C1 [US12180207, Example 32]
– | – | – | 36 | 7 | – | C=CS(=O)(=O)N[C@H]1C[C@@H](C(=O)N2CCC(n3cc(-c4cc(OC)c5c(C#N)cnn5c4)cn3)CC2)C1 [US12180207, Example 193]
6 | – | 14 | 217 | 47 | 4 | COc1cc(-c2cnn(C3CN(CC4CN(C(=O)/C=C/CN(C)C)C4)C3)c2)cn2ncc(C#N)c12 [US12180207, Example 148]
5 | – | 36 | 231 | 19 | 2 | C=CC(=O)N[C@@H]1CC[C@@H](C(=O)N2CCC(n3cc(-c4cc(OC)c5c(C#N)cnn5c4)cn3)CC2)C1 [US12180207, Example 34]
5 | – | 24 | 276 | 11 | 4 | COc1cc(-c2cnn(C3CCN(C(=O)/C=C/CN(C)C)CC3)c2)cn2ncc(C#N)c12 [US12180207, Example 144]
5 | – | 23 | 119 | 19 | 3 | C=CC(=O)N[C@H]1CC[C@H](C(=O)N2CCC(n3cc(-c4cc(OC)c5c(C#N)cnn5c4)cn3)CC2)C1 [US12180207, Example 35]
6 | – | 22 | 229 | 8 | 7 | COc1cc(-c2cnn(C3CN(C(=O)C4CN(C(=O)/C=C/CN(C)C)C4)C3)c2)cn2ncc(C#N)c12 [US12180207, Example 150]
2 | 19 | 7 | 37 | 21 | 4 | C=C(F)C(=O)N1CC(C(=O)N2CCC(n3cc(-c4cc(OC)c5c(C#N)cnn5c4)cn3)CC2)C1 [US12180207, Example 140]
4 | – | 3 | 20 | – | 1 | C=CC(=O)N[C@H]1CC[C@@H](C(=O)N2CCC(n3cc(-c4cc(OC)c5c(C#N)cnn5c4)cn3)CC2)C1 [US12180207, Example 33]
8 | – | 3 | 31 | 10 | 2 | C=CS(=O)(=O)Nc1ccc(C(=O)N2CCC(n3cc(-c4cc(OC)c5c(C#N)cnn5c4)cn3)CC2)cc1 [US12180207, Example 196]
5 | – | 4 | 31 | 17 | – | C=CS(=O)(=O)N[C@H]1CC[C@H](C(=O)N2CCC(n3cc(-c4cc(OC)c5c(C#N)cnn5c4)cn3)CC2)CC1 [US12180207, Example 187]
8 | – | 11 | 56 | 20 | 7 | C=CC(=O)N[C@H]1CCC[C@@H](C(=O)N2CCC(n3cc(-c4cc(OC)c5c(C#N)cnn5c4)cn3)CC2)C1 [US12180207, Example 19]
– | – | – | 93 | 13 | – | C=CS(=O)(=O)N[C@H]1C[C@H](C(=O)N2CCC(n3cc(-c4cc(OC)c5c(C#N)cnn5c4)cn3)CC2)C1 [US12180207, Example 194]
